Here are results for one compound from patent US20130131069A1, “METHOD FOR TREATMENT OF SOLID MALIGNANCIES INCLUDING ADVANCED OR METASTATIC SOLID MALIGNANCIES” (Boehringer Ingelheim International GmbH, priority 2011, published 2013).

Data set [1] can be described thus: Clinical trial: pharmacokinetics in patients. The format is in vivo, human. The following applies: 2-hr i.v. infusion days 1 and 8 every 3 weeks. How it is done:
(§1) Sequential cohorts of 3-6 patients with advanced or metastatic solid malignancies received a 2-hr infusion of volasertib on days 1 and 8 every 3 weeks in a toxicity guided dose escalation study. There were 4 prespecified doses (50-200 mg).
(§2) 27 Asian patients with advanced solid malignancies were treated. […] MTD was 150 mg for above described schedule. The median number of initiated courses was 3 over all dose groups (range 1-21). […] Two patients with bladder cancer and melanoma, respectively had partial responses.

The subject of data set [2] is advanced or metastatic solid malignancies. Briefly: Clinical trial: toxicity guided dose escalation study, 2-hr infusion on days 1 and 8 every 3 weeks. In kind it is in vivo. How it is done:
as §1, §2

Setting [3] is: administered at two days during a 21 day treatment cycle.

Usually clearance stands for the rate of elimination divided by the concentration. A higher clearance goes with efficient removal. What is called half-life is the time in which the quantity being followed falls by half. Regarding `CC[C@@H]1C(=O)N(C)c2cnc(Nc3ccc(C(=O)N[C@H]4CC[C@H](N5CCN(CC6CC6)CC5)CC4)cc3OC)nc2N1C(C)C` [Volasertib, N-[trans-4-[4-(cyclopropylmethyl)-1-piperazinyl]cyclohexyl]-4-[[(7R)-7-ethyl-5,6,7,8-tetrahydro-5-methyl-8-(1-methylethyl)-6-oxo-2-pteridinyl]amino]-3-methoxy-benzamide], the PK behavior result in data set [1] is “multi-compartmental”. This compound displayed a clearance in data set [1] (human, in vivo, iv) of 807 mL/min. In addition, the half-life in data set [1] (human, in vivo, iv, read-out: mean terminal elimination half-life (converted)) was 107 h. For the same compound, the Vd in data set [1] (human, in vivo, iv, read-out: volume of distribution) came out at 4500 L. Also, the MTD in data set [2] (2-hr infusion on days 1 and 8 of 21 day cycle) turned out to be 150 mg. The “patients with partial responses (bladder cancer and melanoma, respectively)” value in data set [2] (27 patients treated, days 1 and 8 every 3 weeks) is on record as “Two”. Also, in data set [2] (setting [3]), the “patients achieved partial response (preliminary anti-tumor activity)” value was 1 patient and the “patients achieved stable disease” value is 10 patients. For the same compound, the “dose limiting toxicities (DLTs)” value in data set [2] (human, in vivo) was “reversible thrombocytopenia, neutropenia and febrile neutropenia”.
